Results published in US11938122B2, “5-[[4-[2-[5-(1-hydroxyethyl)pyridin-2-yl]ethoxy]phenyl]methyl]-1,3- thiazolidine-2,4-dione for treating nonalcoholic fatty liver disease” (Minoryx Therapeutics S.L., priority 2016, dated 2024).

Columns and labels:
[1] = tested on: major drug metabolizing cytochrome P450 (CYP) enzymes; experiment: Reversible and time-dependent inhibition (TDI) of major CYP enzymes, human liver microsomes; type: in vitro ADME; settings: in vitro concentrations of 100 μM or lower
Method: Inhibition was screened using a cocktail incubation with CYP specific substrates for eight major drug metabolizing CYP enzymes (CYPs 1A2, 2A6, 2B6, 2C8, 2C9, 2C19, 2D6 and 3A4) in incubations with a pool of human liver microsomes. In reversible inhibition, MIN-102 was incubated with buffer, microsomes, cofactor NADPH and CYP-specific substrate cocktail mix for 15 min. In TDI study, buffer and microsomes were preincubated with MIN-102 in the presence and absence of cofactor NADPH for 0 or 30 min to elucidate the possible time-dependency of inhibition. Secondary incubation was conducted with CYP-specific substrate cocktail mix for 30 min. MIN-102 was used at final concentrations of 0.01, 0.1, 1, 10, and 100 μM in both assays.

CYP2B6 = experiment: CYP induction in cryopreserved human hepatocytes; type: in vitro ADME; settings: 50 μM, hepatocytes from 3 human donors
CYP3A4 = experiment: CYP induction in cryopreserved human hepatocytes; type: in vitro ADME; settings: 50 μM, hepatocytes from 3 human donors
[2] = Stability in the hepatocyte incubation medium; type: in vitro ADME; settings: 50 μM, 24-hour incubation
Method: The stability of MIN-102 in the incubation medium was assayed in parallel at the highest test concentration (50 μM) and quantified in incubation medium.

EAE mouse model = experiment: Experimental autoimmune encephalitis (EAE) mouse model; type: in vivo; settings: EAE mice, highest dose (125 mg/Kg/day oral, bid)
Description: The anti-inflammatory potential of MIN-102 was studied using an EAE mouse model, e.g., as described in Linker and Lee, Experimental & Translational Stroke Medicine 1:5 (2009). This model for neuroinflammation is a highly reproducible and long established model of multiple sclerosis. The model is based on the induction of an autoimmune reaction upon the exposure of the animals to myelin antigens. Several days after inoculation, e.g., 9-12 days, the mouse develops a relapsing-remitting or chronic disease course.
In the study, female C57Bl/6 mice were sensitized by a subcutaneous injection of myelin oligodendrocyte glycoprotein peptide fragment 35-55 (MOG35-55) in Freund's Complete Adjuvant (CFA) at the tail base. Starting at five days after disease induction, the animals were treated at three different oral doses of MIN-102, 17, 50, and 125 mg/Kg/day, using bid administration. From day five, the animals were weighed and scored for the appearance of disease symptoms. The levels of neutrophils were measured in mice from the naïve, vehicle, and the highest MIN-102 dose. Data were analyzed by one-way ANOVA followed by the Dunnett's post-hoc test versus the vehicle group (*, p <0.05). Results are presented as mean+standard error of the mean of n=10, except n=9 for the highest dose of MIN-102, and n=4 for the naïve group.

[3] = tested on: MCD diet NASH mouse model; experiment: Methionine Choline Deficient (MCD) diet NASH mouse model; type: in vivo; settings: 62.5 mg/kg BID oral, 7 weeks
Description: According to one NASH model in mice (See Verdelho Machado et al., PlosOne May 27:10(5):e0127991 (2015)), male C57BL/6 inbred mice, aged 8 weeks, were obtained from Charles River, France. During the acclimation phase, standard (control chow) diet (RM1 (E) 801492, SDS) and tap water was provided ad libitum. Mice were then fed a Methionine Choline Deficient (MCD) diet (ref #A02082002B from Research Diets, USA) supplemented without or with the test item, provided ad libitum. All procedures were performed in accordance with the Guide for the Care and Use of Laboratory Animals (revised 1996 and 2011, 2010/63/EU) and French laws. 20 animals were housed in ventilated and enriched housing cages (310×125×127 mm^3) throughout the experimental phase. Animals' cages litters were changed at least once a week. They were housed in groups of 10 animals during the whole study, on a normal 12 hours light cycle (at 08:00 pm lights off), 22±2° C. and 50±10% relative humidity.
After the acclimation period, mice (n=20) were weighed and randomized into 2 homogenous treatment groups based on body weight (n=10/group), put on a MCD diet, and treated BID orally with vehicle or MIN-102 for 7 weeks. Body weight was measured 3 times/week until the end of the experimental phase. At 7 weeks of diet/treatment, mice were weighed and treated at ˜08:00 am in the morning, then bled (maximal volume/EDTA) at ˜1:00 pm. Plasma was then immediately isolated and stored at […] prior to assay plasma ALT and AST. The plasma volume left over was stored at […] for eventual additional analysis.
After blood collection, mice were sacrificed by cervical dislocation under isoflurane anesthesia and exsanguinated with sterile saline. Liver was collected and weighted. A ˜20 mg liver sample (weight recorded) was dissected for hepatic total cholesterol and triglycerides levels. A 0.5 cm^3 liver sample was frozen in isopentane for oil red O staining. […]
A NAFLD scoring system (NAS) adapted from Kleiner et al. (Hepatology. 41(6):1313-1321 (2005)) was used. An individual mouse NAS total score was calculated for each animal by summing up the score for (1) hepatocellular steatosis, (2) liver inflammation, (3) lobular fibrosis, and (4) hepatocyte ballooning. […]
Data are expressed as mean±SEM. […]
The preventive effects of MIN-102 was evaluated in a 7-week Methionine Choline Deficient (MCD) diet NASH mouse model (Verdelho Machado et al.). […]
After the acclimation period, C57BL6/J male mice (n=20) were weighed and randomized into 2 homogenous treatment groups based on body weight (n=10/group), put on a MCD diet, and treated BID orally with a vehicle or MIN-102 (125 mg/Kg/day) for 7 weeks. Body weight was measured 3 times/week until the end of the experimental phase. […]

stability in incubation medium [2]: remained stable
SMILES: CC(O)c1ccc(CCOc2ccc(CC3SC(=O)NC3=O)cc2)nc1 (racemic) [MIN-102, 5-[[4-[2-[5-(1-hydroxyethyl)pyridin-2-yl]ethoxy]phenyl]methyl]-1,3-thiazolidine-2,4-dione]
reversible or time-dependent inhibition towards major CYP enzymes [1]: did not cause remarkable reversible or time-dependent inhibition
increase in activity of CYP2B6 probe reaction (CYP2B6): less than 20 % of the respective positive control induction
increase in CYP3A4 mRNA (CYP3A4): less than 20 % of the respective positive control induction
increase in activity of CYP3A4 probe reaction (CYP3A4): less than 20 % of the respective positive control induction
Lymphocyte number (EAE mouse model): 3.6 ± 2.3 ×10^3 cells/μl
N/L ratio (EAE mouse model): 0.52
Neutrophil number (EAE mouse model): 1.9 ± 0.6 ×10^3 cells/μl
Mean NAS group score ([3]; mean±SEM): 0.44±01
reduction in hepatic triglycerides levels ([3]; vs vehicle): 92%
reduction of plasma ALT level ([3]; vs vehicle): 78%
reduction of plasma AST level ([3]; vs vehicle): 55%
